Results from patent US20250011368A1, “DLL3 TARGETING PEPTIDES AND CONSTRUCTS THEREOF” (MARIANA ONCOLOGY INC., priority 2023, published 2025).
Numbered stars: 1 amine (or outer) side, 2 acyl side, 3 side chain; on linkers, the order of the positions; unused ones are H or OH. Bridge positions count the residues as written; N and C are the ends. Square brackets hold non-standard residues; d marks the D form. Side chains are listed from the residue outwards. Peptide text beside a SMILES is read from it. * marks the point of attachment. Ala(piperidin-4-yl) = O=C([C@H](CC1CCN([*:3])CC1)N[*:1])[*:2]; DOTA = O=C(O)CN1CCN(CC(=O)O)CCN(CC(=O)*)CCN(CC(=O)O)CC1; 2Nal = N[C@@H](Cc1ccc2ccccc2c1)C(=O)O; 3Pal = N[C@@H](Cc1cccnc1)C(=O)O; Chg = N[C@H](C(=O)O)C1CCCCC1; Ahx = NCCCCCC(=O)O

Tests used:
SHP-77 tumors = assay: Ex vivo biodistribution of radiolabeled peptides in nude mice bearing SHP-77 tumors; details: [177Lu]Lu labelling, nude mice bearing SHP-77 tumors (n = 3), 24 hours post-injection
Procedure: Mice were intravenously injected (via the lateral tail vein) with a bolus dose of the radiolabeled peptides for ex vivo biodistribution studies when tumor volumes were in range of 200-400 mm^3 for xenograft mice and when age of the mice was 5-7 weeks for tumor naïve mice studies. To assess the amount of radionuclide injected into individual mice the syringe was assayed in a dose calibrator before and after injection for [^177Lu]Lu-peptide.
Mice were euthanized at pre-determined time points and selected tissues were resected and collected into pre-weighed tubes. The tubes were then reweighed post resection, the difference giving the weight of each tissue. Radioactivity in each tissue was measured using a gamma counter. Counts were decay corrected to the time of injection and percentage of injected activity per gram (% IA/g) was calculated for each tissue based on the injected activity into each individual mouse. Injected activity was converted to counts based on the sensitivity of the gamma counter. The counts in tissue were then converted to the percentage of injected activity and this was divided by the mass of tissue to give % IA/g.

human DLL3 = biological target: T1, human DLL3 (Homo sapiens, UniProt Q9NYJ7); assay: Affinity determination by Surface Plasmon Resonance (SPR); type: binding; details: 25° C., biotinylated human DLL3 immobilized on streptavidin sensor chip, 1:1 binding model; read-out: SPR KD
T1 sequence (Q9NYJ7 27-618): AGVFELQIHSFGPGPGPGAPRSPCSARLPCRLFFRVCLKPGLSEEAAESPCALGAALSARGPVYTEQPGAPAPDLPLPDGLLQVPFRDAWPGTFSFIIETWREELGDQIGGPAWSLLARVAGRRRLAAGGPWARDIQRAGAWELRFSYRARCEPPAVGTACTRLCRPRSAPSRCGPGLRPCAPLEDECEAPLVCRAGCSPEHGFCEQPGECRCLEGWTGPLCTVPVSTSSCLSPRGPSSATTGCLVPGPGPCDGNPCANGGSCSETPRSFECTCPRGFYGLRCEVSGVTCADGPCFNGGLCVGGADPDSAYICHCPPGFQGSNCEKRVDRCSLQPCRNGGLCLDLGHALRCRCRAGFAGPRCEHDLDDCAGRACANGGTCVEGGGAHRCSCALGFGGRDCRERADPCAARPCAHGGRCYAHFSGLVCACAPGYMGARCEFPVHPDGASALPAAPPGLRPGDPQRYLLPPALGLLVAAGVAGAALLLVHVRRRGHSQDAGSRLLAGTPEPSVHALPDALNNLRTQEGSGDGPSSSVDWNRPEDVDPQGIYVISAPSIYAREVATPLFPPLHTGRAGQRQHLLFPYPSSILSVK
Outline: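 Biotinylated human DLL3 was captured on a streptavidin chip with a reference surface. Compounds at several concentrations were injected at 100 μL/minute in phosphate buffer (137 mM NaCl, 2.7 mM KCl, 0.05% P20, 2% DMSO). Affinity and kinetics came from 1:1 model fits of the sensorgrams.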

CT26.DLL3 cells = assay: Cell binding (total uptake) of [177Lu]Lu-test peptide, CT26.DLL3 cells; type: cell-based; details: 1 hour at 37° C.
Procedure: [^177Lu]LuCl3 was received from venders in HCl solution. For every mCi of [^177Lu]LuCl3 added to the reaction vial (1.5 mL Eppendorf vial), ammonium acetate buffer (0.2 M, pH 4.9, 100 μL, containing 1% w/v ascorbic acid and 6% v/v ethanol) and peptide conjugate (1 nmol). A peptide conjugate of the present disclosure is also referred to herein as a “chelator-peptide”. The pH of the solution was determined to be approximately 5 by using pH strips. The reaction vial was incubated at 80° C., 700 RPM for 17-20 minutes. A sample from the reaction was analyzed by RP-HPLC using an Agilent Infinity II 1260 HPLC to determine reaction completion and radiochemical purity of [^177Lu]Lu-chelator-peptide. HPLC conditions: Waters XBridge BEH C18 Column, 130 Å, 3.5 um, 4.6 mm×250 mm; mobile phase: Solvent A=water (with 0.1% formic acid), solvent B=acetonitrile (with 0.1% formic acid). Gradients: 25-45% B in 10 minutes, 45-65% B in 12 minutes, 65-90% in 6 minutes at a flow rate of 0.5 mL/minute. Required amounts of the product was formulated in 1% PBSA for cell studies.
The study was conducted using SHP-77, CT26.WT, and CT26.DLL3 cells (Table 7) Adherent cell studies: The cells were cultured in appropriate culture media (20 mL) in tissue culture treated T150 flasks at 37° C. and 5% CO2. Adherent cells were detached (60-70% confluent) using 5 mL Versene at 37° C. for 3 minutes. After confirming the viability using countess and count of detached cells using Trypan blue, the cells were centrifuged at 4° C. for 5 minutes (1,000 rpm). The cell pellet obtained was washed once with PBS and resuspended in 1% PBSA to obtain the desired cell concentration (5-25 million cells/mL).
Cell numbers used for the assay were in the range of 5 million cells/condition −25 million cells/condition.
Total uptake: Cells were incubated with 300 μL (0.8 μCi) of the incubation buffer (containing radiolabeled peptide [^177Lu] Lu-test peptide) for 1 hour at 37° C. (Table 8). Post incubation, the cells were pelleted and washed 2 times using cold PBS+1% BSA. The supernatant and washes were combined and counted together as “unbound fraction” in a gamma counter. The cells were then resuspended in 300 μL of 1% PBS+1% BSA and counted in the gamma counter as “bound fraction”.
In these Tables, “A” represents %≤25; “B” represents 25<%≤50; “C” represents %>50.

SMILES | kidney uptake (% IA/g) (SHP-77 tumors) | tumor uptake (% IA/g) (SHP-77 tumors) | Kd (human DLL3) | % Binding (CT26.DLL3 cells)
CC[C@H](C)[C@H](NC(=O)[C@@H](NC(=O)[C@H](Cc1c[nH]c2ccccc12)NC(C)=O)[C@@H](C)O)C(=O)N[C@H]1CSSC[C@@H](C(=O)N[C@@H](Cc2c[nH]c3ccccc23)C(=O)N2CCC[C@H]2C(=O)N[C@H](CCCCNC(=O)CCCCCNC(=O)CN2CCN(CC(=O)O)CCN(CC(=O)O)CCN(CC(=O)O)CC2)C(N)=O)NC(=O)[C@H](CC(=O)O)NC(=O)[C@H](Cc2cnc[nH]2)NC(=O)[C@H](Cc2c[nH]c3ccccc23)NC(=O)[C@H](CC(N)=O)NC(=O)[C@H](CC(N)=O)NC1=O [compound 47, Ac-W-T-I-C(3)-N-N-W-H-D-C(3)-W-P-(D-Lys)-Ahx-DOTA-NH2] (Ac-WTICNNWHDCWP[dK]([Ahx-DOTA])-NH2; disulfide 4-10) | D (% IA/g > 10 in kidney) | A (0 < % IA/g ≤ 5 in tumor) | 1 to 10 nM | –
CC[C@H](C)[C@H](NC(=O)[C@@H](NC(=O)[C@H](Cc1c[nH]c2ccccc12)NC(C)=O)[C@@H](C)O)C(=O)N[C@H]1CSSC[C@@H](C(=O)N[C@@H](Cc2c[nH]c3ccccc23)C(=O)N2CCC[C@H]2C(=O)N[C@H](CCCCNC(=O)CN2CCN(CC(=O)O)CCN(CC(=O)O)CCN(CC(=O)O)CC2)C(N)=O)NC(=O)[C@H](CC(=O)O)NC(=O)[C@H](CCCCN)NC(=O)[C@H](Cc2ccc3ccccc3c2)NC(=O)[C@H](CC(N)=O)NC(=O)[C@H](CC(N)=O)NC1=O [compound 237, Ac-W-T-I-C(3)-N-N-(2Nal)-K-D-C(3)-W-P-[D-Lys(DOTA)]-NH2] (Ac-WTICNN[2Nal]KDCWP[dK](DOTA)-NH2; disulfide 4-10) | – | – | < 1 nM | A (%≤25)
CC[C@H](C)[C@H](NC(=O)[C@@H](NC(=O)[C@H](Cc1c[nH]c2ccccc12)NC(C)=O)[C@@H](C)O)C(=O)N[C@H]1CSSC[C@@H](C(=O)N[C@@H](Cc2c[nH]c3ccccc23)C(=O)N2CCC[C@H]2C(=O)N[C@H](CCCCNC(=O)CN2CCN(CC(=O)O)CCN(CC(=O)O)CCN(CC(=O)O)CC2)C(N)=O)NC(=O)[C@H](CC(=O)O)NC(=O)[C@H](Cc2cnc[nH]2)NC(=O)[C@H](Cc2ccc3ccccc3c2)NC(=O)[C@H](CC(N)=O)NC(=O)[C@H](CCCCN)NC1=O [compound 259] (Ac-WTICKN[2Nal]HDCWP[dK](DOTA)-NH2; disulfide 4-10) | – | – | < 1 nM | B (25<%≤50)
CC[C@H](C)[C@H](NC(=O)[C@@H](NC(=O)[C@H](Cc1c[nH]c2ccccc12)NC(C)=O)[C@@H](C)O)C(=O)N[C@H]1CSSC[C@@H](C(=O)N[C@@H](Cc2c[nH]c3ccccc23)C(=O)N2CCC[C@H]2C(=O)N[C@H](CCCCNC(=O)CN2CCN(CC(=O)O)CCN(CC(=O)O)CCN(CC(=O)O)CC2)C(N)=O)NC(=O)[C@H](CC(=O)O)NC(=O)[C@H](Cc2cnc[nH]2)NC(=O)[C@H](Cc2ccc3ccccc3c2)NC(=O)[C@H](CC(N)=O)NC(=O)[C@H](CC2CCNCC2)NC1=O [compound 260, Ac-W-T-I-C(3)-[3-(4-piperidinyl)-Ala]-N-(2Nal)-H-D-C(3)-W-P-[D-Lys(DOTA)]-NH2] (Ac-WTIC[Ala(piperidin-4-yl)]N[2Nal]HDCWP[dK](DOTA)-NH2; disulfide 4-10) | C (0 < % IA/g ≤ 10 in kidney) | A (0 < % IA/g ≤ 5 in tumor) | < 1 nM | B (25<%≤50)
CC[C@H](C)[C@H](NC(=O)[C@@H](NC(=O)[C@H](Cc1c[nH]c2ccccc12)NC(C)=O)[C@@H](C)O)C(=O)N[C@H]1CSSC[C@@H](C(=O)N[C@@H](Cc2c[nH]c3ccccc23)C(=O)N2CCC[C@H]2C(=O)N[C@H](CCCCNC(=O)CN2CCN(CC(=O)O)CCN(CC(=O)O)CCN(CC(=O)O)CC2)C(N)=O)NC(=O)[C@H](CC(=O)O)NC(=O)[C@H](Cc2cnc[nH]2)NC(=O)[C@H](Cc2ccc3ccccc3c2)NC(=O)[C@H](Cc2cccnc2)NC(=O)[C@H](CC(N)=O)NC1=O [compound 265, Ac-W-T-I-C(3)-N-(3Pya)-(2Nal)-H-D-C(3)-W-P-[D-Lys(DOTA)]-NH2] (Ac-WTICN[3Pal][2Nal]HDCWP[dK](DOTA)-NH2; disulfide 4-10) | D (% IA/g > 10 in kidney) | A (0 < % IA/g ≤ 5 in tumor) | < 1 nM | –
CC(=O)N[C@@H](Cc1c[nH]c2ccccc12)C(=O)N[C@H](C(=O)N[C@H](C(=O)N[C@H]1CSSC[C@@H](C(=O)N[C@@H](Cc2c[nH]c3ccccc23)C(=O)N2CCC[C@H]2C(=O)N[C@H](CCCCNC(=O)CN2CCN(CC(=O)O)CCN(CC(=O)O)CCN(CC(=O)O)CC2)C(N)=O)NC(=O)[C@H](CC(=O)O)NC(=O)[C@H](Cc2cnc[nH]2)NC(=O)[C@H](Cc2ccc3ccccc3c2)NC(=O)[C@H](CC(N)=O)NC(=O)[C@H](CC2CCNCC2)NC1=O)C1CCCCC1)[C@@H](C)O [compound 280, Ac-W-T-(Chg)-C(3)-[3-(4-piperidinyl)-Ala]-N-(2Nal)-H-D-C(3)-W-P-[D-Lys(DOTA)]-NH2] (Ac-WT[Chg]C[Ala(piperidin-4-yl)]N[2Nal]HDCWP[dK](DOTA)-NH2; disulfide 4-10) | C (0 < % IA/g ≤ 10 in kidney) | A (0 < % IA/g ≤ 5 in tumor) | < 1 nM | –
